Test results reported in the OligoGym collection.
After the bases stand the sugars from the 5' end (letter, count) and the backbone: PS all phosphorothioate, else s phosphorothioate and o phosphodiester by linkage. Methylation of C is not given here. e = 2'-O-(2-methoxyethyl) (MOE); k = constrained ethyl (cEt); d = 2'-deoxy (DNA); m = 2'-O-methyl

Molecular target: HSD17B13
Conditions: ASO, HepaRG

Sequence	target mRNA inhibition (1 µM)	also measured
TCAAAGTCAGTATCCC (sugars k3 d10 k3, PS)	79%	target mRNA inhibition (0.02 µM): 5%; target mRNA inhibition (0.078 µM): 19%; target mRNA inhibition (0.313 µM): 48%; target mRNA inhibition (1.25 µM): 75%; target mRNA inhibition (5 µM): 88%
TCACCTGATTTAGAGA (sugars k3 d10 k3, PS)	13%	–
TCACCTTTCATAATGT (sugars k3 d9 k3 e1, PS)	41%	–
TCATAAAAATCGCTGC (sugars k3 d10 k3, PS)	26%	–
TCATAAACATAGGCTT (sugars k3 d10 k3, PS)	58%	–
TCATAGTGGACTTCAT (sugars kkdddddddddkekek, PS)	48%	–
TCATTAGGAAAAGTGT (sugars k3 d10 k3, PS)	16%	–
TCATTCGAATTTCTTC (sugars k3 d10 k3, PS)	76%	target mRNA inhibition (0.02 µM): 16%; target mRNA inhibition (0.078 µM): 31%; target mRNA inhibition (0.313 µM): 54%; target mRNA inhibition (1.25 µM): 79%; target mRNA inhibition (5 µM): 90%
TCCAAAGATGAGAGTC (sugars k3 d10 k3, PS)	17%	–
TCCAAGTAATTACTTC (sugars k3 d10 k3, PS)	72%	target mRNA inhibition (0.02 µM): 0%; target mRNA inhibition (0.078 µM): 3%; target mRNA inhibition (0.313 µM): 23%; target mRNA inhibition (1.25 µM): 43%; target mRNA inhibition (5 µM): 67%
TCCACACCGCGCTTAT (sugars k3 d10 k3, PS)	32%	–
TCCAGGTTGAGATAAA (sugars k3 d10 k3, PS)	70%	–
TCCATAATAATAGCTC (sugars k3 d9 k3 e1, PS)	66%	–
TCCATCATCGATGGAA (sugars k3 d10 k3, PS)	31%	–
TCCATTATCCTTACTC (sugars k3 d10 k3, PS)	15%	–
TCCCTGTGTAAATAAG (sugars k3 d10 k3, PS)	35%	–
TCCGTTATAAGTTTCA (sugars k3 d10 k3, PS)	65%	–
TCCTAGGGAGGAGGTA (sugars k3 d10 k3, PS)	33%	–
TCCTTGTGTAGTCCTA (sugars k3 d10 k3, PS)	61%	–
TCGAAACTATTCATAT (sugars k3 d10 k3, PS)	64%	–
TCGAATCATTAAGCTT (sugars k3 d10 k3, PS)	34%	–
TCGATGGAAGAAGTGC (sugars k3 d10 k3, PS)	34%	–
TCGCCTAAAGGAGATC (sugars k3 d10 k3, PS)	70%	–
TCTAAAGCAGGCTACT (sugars k3 d10 k3, PS)	32%	–

Sequence	target mRNA inhibition (1 µM)	also measured
TCTAAAGGGCTGCTCT (sugars k3 d10 k3, PS)	33%	–
TCTAAATTACTCCGTT (sugars k3 d10 k3, PS)	15%	–
TCTAAATTATTGCCTG (sugars k3 d10 k3, PS)	43%	–
TCTATTATGCACTCTA (sugars k3 d10 k3, PS)	55%	–
TCTCTTGACAATGGTT (sugars kkdddddddddkekek, PS)	70%	target mRNA inhibition (0.02 µM): 15%; target mRNA inhibition (0.078 µM): 25%; target mRNA inhibition (0.313 µM): 43%; target mRNA inhibition (1.25 µM): 71%; target mRNA inhibition (5 µM): 70%
TCTCUTAGCTGTGCAC (sugars k3 d1 m1 d8 k3, PS)	49%	–
TCTGATGTCAGACCTC (sugars k3 d10 k3, PS)	42%	–
TCTGATTACAGCATCA (sugars k3 d10 k3, PS)	48%	–
TCTGGGACCAAGGATA (sugars k3 d1 m1 d8 k3, PS)	31%	–
TCTGGGACCAAGGATA (sugars kkdddddddddkekek, PS)	56%	–
TCTGTGGCATGGCTAC (sugars k3 d10 k3, PS)	67%	–
TCTTAAACCTTCCCTG (sugars k3 d9 k3 e1, PS)	38%	–
TCTTAAGATACCCAGG (sugars k3 d1 m1 d8 k3, PS)	51%	–
TCTTAAGATACCCAGG (sugars kkdddddddddkekek, PS)	35%	–
TCTTAATTACATTCCC (sugars k3 d10 k3, PS)	64%	–
TCTTACATGATTAAGC (sugars k3 d10 k3, PS)	35%	–
TCTTACGACTTCATCT (sugars k3 d10 k3, PS)	34%	–
TCTTAGCTGTGCACTC (sugars kkdddddddddkekek, PS)	50%	–
TCTTATGTAATAGCCA (sugars k3 d1 m1 d8 k3, PS)	64%	–
TCTTATGTAATAGCCA (sugars k3 d9 k3 e1, PS)	76%	target mRNA inhibition (0.02 µM): 15%; target mRNA inhibition (0.078 µM): 18%; target mRNA inhibition (0.313 µM): 25%; target mRNA inhibition (1.25 µM): 65%; target mRNA inhibition (5 µM): 84%
TCTTATGTAATAGCCA (sugars kkdddddddddkekek, PS)	65%	–
TCTTCATCCTTGGTGC (sugars k3 d10 k3, PS)	48%	–
TCTTGACAATGGTTGA (sugars k3 d1 m1 d8 k3, PS)	56%	–
TCTTGATGTAGTGGGA (sugars k3 d10 k3, PS)	44%	–

Sequence	target mRNA inhibition (1 µM)	also measured
TCTTTAGTCAACAGTA (sugars k3 d10 k3, PS)	68%	–
TGAACAGTCTTAAACC (sugars k3 d10 k3, PS)	56%	–
TGAACTGAAACGATCC (sugars k3 d10 k3, PS)	58%	–
TGAAGTTAGTATAGTT (sugars k3 d1 m1 d8 k3, PS)	62%	–
TGAATGTAAAGGCTGG (sugars k3 d10 k3, PS)	38%	–
TGACAATGGTTGATAG (sugars kkdddddddddkekek, PS)	37%	–
TGAGAACAATCTCCCC (sugars k3 d10 k3, PS)	69%	target mRNA inhibition (0.02 µM): 12%; target mRNA inhibition (0.078 µM): 30%; target mRNA inhibition (0.313 µM): 57%; target mRNA inhibition (1.25 µM): 84%; target mRNA inhibition (5 µM): 90%
TGAGATTACCCCTGGC (sugars k3 d10 k3, PS)	53%	–
TGAGCCTAAAATTGTC (sugars k3 d10 k3, PS)	30%	–
TGAGCTAGACAATTGC (sugars k3 d10 k3, PS)	78%	–
TGAGTAGTGTAAGCTG (sugars k3 d10 k3, PS)	62%	–
TGATATGTCAATACTC (sugars k3 d10 k1 d1 k1, PS)	57%	–
TGATATTCTGTGGCAT (sugars k3 d1 m1 d8 k3, PS)	61%	–
TGATATTCTGTGGCAT (sugars kkdddddddddkekek, PS)	46%	–
TGATTTAGAGAGCGAT (sugars k3 d10 k3, PS)	35%	–
TGATTTTGACCTTACC (sugars k3 d10 k3, PS)	11%	–
TGATUGAGTTCTCCAC (sugars k3 d1 m1 d8 k3, PS)	4%	–
TGCAACTTTTAGTCAG (sugars k3 d10 k3, PS)	41%	–
TGCAATGAGATTACCC (sugars k3 d10 k3, PS)	54%	–
TGCACCGTTTTGGGCT (sugars k3 d1 m1 d8 k3, PS)	55%	–
TGCACCGTTTTGGGCT (sugars k3 d9 k3 e1, PS)	43%	–
TGCACCGTTTTGGGCT (sugars k3 d10 k3, PS)	36%	–
TGCACCGTTTTGGGCT (sugars kkdddddddddkekek, PS)	29%	–
TGCAGCATTGATTCGA (sugars k3 d9 k3 e1, PS)	52%	–

Sequence	target mRNA inhibition (1 µM)	also measured
TGCATAAGAGCCAAAC (sugars k3 d10 k3, PS)	56%	–
TGCCAAACCAATGTTT (sugars k3 d1 m1 d8 k3, PS)	35%	–
TGCCAAACCAATGTTT (sugars k3 d9 k3 e1, PS)	43%	–
TGCCAAGCTTTGTGTC (sugars k3 d10 k3, PS)	38%	–
TGCCCCGAATTATTTC (sugars k3 d10 k3, PS)	3%	–
TGCTACTTGAACAGTC (sugars k3 d9 k3 e1, PS)	68%	–
TGCTAGTAATTGCATC (sugars k3 d10 k3, PS)	17%	–
TGCTAGTGCCAAACCA (sugars k3 d1 m1 d8 k3, PS)	80%	target mRNA inhibition (0.02 µM): 7%; target mRNA inhibition (0.078 µM): 29%; target mRNA inhibition (0.313 µM): 46%; target mRNA inhibition (1.25 µM): 67%; target mRNA inhibition (5 µM): 90%
TGCTGCATTAATGCCA (sugars k3 d1 m1 d8 k3, PS)	32%	–
TGCTGCATTAATGCCA (sugars k3 d10 k3, PS)	15%	–
TGCTGCTAGTGCCAAA (sugars k3 d9 k3 e1, PS)	56%	–
TGCTGCTAGTGCCAAA (sugars kkdddddddddkekek, PS)	40%	–
TGCTTACGACAGGTCA (sugars k3 d10 k3, PS)	81%	target mRNA inhibition (0.02 µM): 0%; target mRNA inhibition (0.078 µM): 21%; target mRNA inhibition (0.313 µM): 57%; target mRNA inhibition (1.25 µM): 70%; target mRNA inhibition (5 µM): 90%
TGCTTTAGCTTAAACT (sugars k3 d10 k3, PS)	51%	–
TGGCTATAGTAATTGC (sugars k3 d10 k3, PS)	34%	–
TGGCTTAATGTTCAGT (sugars k3 d10 k3, PS)	50%	–
TGGGAAATTGTTGCTG (sugars k3 d10 k3, PS)	38%	–
TGGGACCAAGGATATA (sugars kkdddddddddkekek, PS)	30%	–
TGGGAGTCGGATTATT (sugars k3 d10 k3, PS)	44%	–
TGGGATACTATTCTCC (sugars k3 d10 k3, PS)	18%	–
TGGGTCCATTGTTTCT (sugars k3 d10 k3, PS)	35%	–
TGGTAACGGTGATCAA (sugars k3 d1 m1 d8 k3, PS)	41%	–
TGGTAACGGTGATCAA (sugars kkdddddddddkekek, PS)	26%	–
